Test [1] can be described thus: Bone calcium mobilization (serum calcium) in vitamin D-deficient rats. It counts as in vivo, rat. As to conditions: ip, 4 consecutive days, rats on 0.02% Ca diet. On the procedure:
(§1) Male, weanling Sprague-Dawley rats were placed on Diet 11 (0.47% Ca) diet+AEK oil for one week followed by Diet 11 (0.02% Ca)+AEK oil for 3 weeks. The rats were then switched to a diet containing 0.47% Ca for one week followed by two weeks on a diet containing 0.02% Ca. Dose administration began during the last week on 0.02% calcium diet. Four consecutive ip doses were given approximately 24 hours apart. Twenty-four hours after the last dose, blood was collected from the severed neck and the concentration of serum calcium determined as a measure of bone calcium mobilization. The first 10 cm of the intestine was also collected for intestinal calcium transport analysis using the everted gut sac method.

In a further test the test system is HL-60 cells. Description: HL-60 differentiation (nitro blue tetrazolium reduction). The format is cell-based, human. As to conditions: for EC50: HL-60 cells into monocytes, FIG. 2, read-out: EC50, HL-60 cell differentiation. As for the experimental part:
The study drugs were dissolved in ethanol and the concentrations determined using UV spectrophotometry. Serial dilutions were prepared so that a range of drug concentrations could be tested without changing the final concentration of ethanol (≦0.2%) present in the cell cultures.
Human promyelocytic leukemia (HL60) cells were grown in RPMI-1640 medium containing 10% fetal bovine serum. The cells were incubated at 37° C. in the presence of 5% CO2.
HL60 cells were plated at 1.2×10^5 cells/ml. Eighteen hours after plating, cells in duplicate were treated with drug. Four days later, the cells were harvested and a nitro blue tetrazolium reduction assay was performed (Collins et al., 1979; J. Exp. Med. 149:969-974). The percentage of differentiated cells was determined by counting a total of 200 cells and recording the number that contained intracellular black-blue formazan deposits. Verification of differentiation to monocytic cells was determined by measuring phagocytic activity (data not shown).

The nature of test [2]: Intestinal calcium transport (everted gut sac) in vitamin D-deficient rats. As to conditions: ip, 4 consecutive days. The format is in vivo, rat. As for the experimental part:
as §1

Test [3] relates to 24-hydroxylase (24Ohase) gene promoter. Description: In vitro transcription assay (24-hydroxylase promoter luciferase reporter in ROS 17/2.8 bone cells). As to conditions: for EC50: ROS 17/2.8 cells, 24-hydroxylase gene, FIG. 3, read-out: EC50, transcriptional activity in bone cells. The format is cell-based. As for the experimental part: Transcription activity was measured in ROS 17/2.8 (bone) cells that were stably transfected with a 24-hydroxylase (24Ohase) gene promoter upstream of a luciferase reporter gene (Arbour et al., 1998). Cells were given a range of doses. Sixteen hours after dosing the cells were harvested and luciferase activities were measured using a luminometer.
RLU=relative luciferase units.

The target of test [4] is T1, full-length recombinant rat vitamin D receptor (Rattus norvegicus, UniProt P13053).
T1 construct: Full-length recombinant rat receptor was expressed in E. coli BL21 (DE3) Codon Plus RIL cells; histidine tag (C); made in house; host or cells: E. coli BL21 (DE3) Codon Plus RIL
T1 sequence (P13053 1-423): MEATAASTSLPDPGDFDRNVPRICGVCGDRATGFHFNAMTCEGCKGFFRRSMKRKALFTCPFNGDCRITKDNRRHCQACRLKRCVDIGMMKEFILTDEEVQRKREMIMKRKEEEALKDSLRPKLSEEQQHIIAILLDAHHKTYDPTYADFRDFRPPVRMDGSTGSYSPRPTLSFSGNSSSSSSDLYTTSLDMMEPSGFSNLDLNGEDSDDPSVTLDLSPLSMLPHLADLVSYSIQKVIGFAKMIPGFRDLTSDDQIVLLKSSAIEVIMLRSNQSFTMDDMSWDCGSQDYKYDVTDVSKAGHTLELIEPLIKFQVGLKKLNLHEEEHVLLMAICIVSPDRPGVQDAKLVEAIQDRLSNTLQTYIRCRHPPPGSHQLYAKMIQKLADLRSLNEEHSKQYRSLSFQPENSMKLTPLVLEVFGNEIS
Description: Vitamin D receptor binding (competition with [3H]-1,25(OH)2D3). On the procedure: Full-length recombinant rat receptor was expressed in E. coli BL21 (DE3) Codon Plus RIL cells and purified to homogeneity using two different column chromatography systems. The first system was a nickel affinity resin that utilizes the C-terminal histidine tag on this protein. The protein that was eluted from this resin was further purified using ion exchange chromatography (S-Sepharose Fast Flow). Aliquots of the purified protein were quick frozen in liquid nitrogen and stored at −80° C. until use. For use in binding assays, the protein was diluted in TEDK50 (50 mM Tris, 1.5 mM EDTA, pH7.4, 5 mM DTT, 150 mM KCl) with 0.1% Chaps detergent. The receptor protein and ligand concentration were optimized such that no more than 20% of the added radiolabeled ligand was bound to the receptor.
Radiolabeled and unlabeled ligands were added to 100 mcl of the diluted protein at a final ethanol concentration of ≦10%, mixed and incubated overnight on ice to reach binding equilibrium. The following day, 100 mcl of hydroxylapatite slurry (50%) was added to each tube and mixed at 10-minute intervals for 30 minutes. The hydroxylapaptite was collected by centrifugation and then washed three times with Tris-EDTA buffer (50 mM Tris, 1.5 mM EDTA, pH 7.4) containing 0.5% Titron X-100. […] Total binding was determined from the tubes containing only radiolabeled ligand.

Like-named read-outs stand apart in the source and are kept apart here.

Consider `C=C1/C(=C\C=C2/CCC[C@]3(C)[C@@H]([C@H](C)CCCC(C)(C)O)CC[C@@H]23)C[C@@H](O)C[C@@H]1O` [1,25(OH)2D3, 1α,25-dihydroxyvitamin D3, reference compound], for which, in test [1] (260 pmol/day), the “bone calcium mobilization (serum calcium)” value is “increased serum calcium levels”. In addition, the values for the EC50 (in the test on HL-60 cells; in test [3]) were 3 nM and 0.2 nM, respectively. The intestinal calcium transport entry in test [2] (260 pmol/day) is recorded as “significant increase”.

Regarding `C=C1[C@H](O)CC(=C/C=C2\CCC[C@]3(C)[C@@H](C(=C)CC)CC[C@@H]23)C[C@H]1O` [MDBE 20, 2-methylene-20(21)-dehydro-19,24,25,26,27-pentanor-1α-hydroxyvitamin D3], the “bone calcium mobilization (serum calcium)” value in test [1] (7020 pmol/day) is “did not result in mobilization of bone calcium”; in test [1] (35100 pmol/day) it was “no substantial effect was seen”. For the same compound, the EC50 was 30 nM with HL-60 cells (Homo sapiens) and 4 nM in test [3]. For the same compound, in the test on HL-60 cells (compared to 1,25(OH)2D3), the “times less potent than 1,25(OH)2D3 on HL-60 cell differentiation” value was “about 10 times”. The intestinal calcium transport result in test [2] (7020 pmol/day) and in test [2] (35100 pmol/day) was “does not promote intestinal calcium transport” in each case. Besides, the “VDR binding activity relative to 1α,25-dihydroxyvitamin D3” value in test [4] (compared to native hormone) is listed as “about one-half log less active”. Besides, the Ki in test [4] (full-length recombinant rat VDR, FIG. 1) worked out at 0.08 nM. In addition, the “times less potent than 1,25(OH)2D3 in increasing transcription of the 24-hydroxylase gene” value in test [3] (bone cells, compared to 1,25(OH)2D3) turned out to be 10 times.

(Values after US20130178449A1, “2-Methylene-20(21)-Dehydro-19,24,25,26,27-Pentanor-Vitamin D Analogs” (WISCONSIN ALUMNI RESEARCH FOUNDATION, priority 2011, published 2013).)
